Assay results reported in patent publication US20040248964A1, “Analgesic uses of norketamine and ketamine/norketamine prodrugs” (priority 2002, published 2004).

Experiments:
NMDA receptor = details: cited from earlier work
[1] = Norketamine i.v. drip in a patient with intractable bladder pain, pain level subjectively evaluated by the patient; assay type: in vivo, human
Protocol: A patient, weighing approximately 60 kg, presents with intractable bladder pain (interstitial ceptitis), which has been diagnosed previously. Pain management in this patient consists of 100 mg Demoral every 3 hours; Dilaudid 2-4 mg every 4 hours; Dalmane 30 mg per day; Duralgesic patches (fentanyl transdermal patches); bladder washes with Pyridium (phenaropyridine HCl), which is a urinary tract analgesic; and belladonna and opiate suppositories. In addition to the pain medication, the patient takes Zanax and Tagamet to alleviate gastric distress, and Compazine (an anti-emetic) to counteract nausea. Gastric distress and nausea in this patient result from the pain medication.
Despite the dosages and range of pain medications used by this patient, satisfactory pain management is not achieved.
A diagnostic pre-sacral, or ilio-hypogastric, nerve block is performed on this patient to alleviate the pain. Unfortunately, the effect of the block is temporary, and the block is associated with significant motor weakness. After the block wears off, the patient states that they are unable to function, as the most mundane activities are exhausting.
Norketamine (10 mg/cc) drip was administered i.v. over one hour, for a total dose of 40 mg norketamine. […] About 1 hour after norketamine infusion is discontinued, the patient reports that the level of pain has increased to about #15, and thereafter rapidly to its previous level. The patient continues to take the other pain medications without effect.

[2] = cited from earlier work
rats = details: intravenously or intraspinally; cited from earlier work
[3] = Nasal spray self-administration of norketamine in the same patient

NC1(c2ccccc2Cl)CCCCC1=O (stereo not drawn) [Norketamine, 2-(2-chlorophenyl)-2-amino-cyclohexanone]
binding to the NMDA receptor compared with S- or R-ketamine (NMDA receptor): less tightly | reduction of the pain level by a factor ([1]; 10 mg/cc drip i.v. over one hour, total dose 40 mg, from #20, subjectively evaluated by the patient): 2 | pain level about 1 hour after norketamine infusion is discontinued ([1]; thereafter rapidly to its previous level): ~15 | pain level after norketamine infusion ([1]; total dose 40 mg i.v. over one hour, level before #20): 10-12 | anesthetic and analgesic potency relative to ketamine ([2]; speculated): one third | adverse sequelae compared with an equal dose of ketamine (rats): fewer of the adverse sequelae | control of breakthrough pain ([3]; nasal administration): particularly effective | pain management with nasal administration ([3]; nasal spray 100 mg/ml, 16 mg per spray, 1-2 sprays for severe pain): remarkable pain management

CCOC(=O)NC1(c2ccccc2Cl)CCCCC1=O (stereo not drawn)
melting point: 112 to 114 °C

CN[C@]1(c2ccccc2Cl)CCCCC1=O [S-ketamine, reference compound]
potency relative to R-ketamine ([2]; in vivo): twice as potent

CCCCOC(=O)NC1(c2ccccc2Cl)CCCCC1=O (stereo not drawn)
melting point: 130 to 132 °C

CC(C)OC(=O)NC1(c2ccccc2Cl)CCCCC1=O (stereo not drawn)
melting point: 124 to 126 °C
